Measured values reported in patent US11466044B2 (WAYNE STATE UNIVERSITY, priority 2017, dated 2022).
Read-outs that look alike come from different tables or passages of the source.

Legend:
[1] = system: Klebsiella pneumonia AG215; test: MIC by broth microdilution, Klebsiella pneumonia; assay type: cell-based; details: strain AG215 Klebsiella pneumonia
[2] = system: E coli carrying specific resistance determinants; test: MIC by broth microdilution, E coli carrying specific resistance determinants; assay type: cell-based
MRSA = test: MIC by broth microdilution, MRSA isolates; assay type: cell-based
M. smegmatis SZ380 = test: MIC by broth microdilution, M. smegmatis
[3] = system: cytosolic ribosome (human chimeric); assay type: biochemical
From the text: (§1) The antiribosomal activity of these compounds was investigated with cell-free translation assays using both wild type bacterial ribosomes and hybrid ribosomes carrying eukaryotic decoding A sites enabling the prediction of selectivity.

[4] = system: mitochondrial ribosome (human chimeric); assay type: biochemical
From the text: as §1

N. gonorrhoeae = test: Disk diffusion, N. gonorrhoeae; assay type: cell-based; details: 25 nmol
P aeruginosa = test: MIC by broth microdilution, P aeruginosa isolates; assay type: cell-based, Pseudomonas aeruginosa
[5] = system: Acinetobacter baumannii pittii AG225; test: MIC by broth microdilution, Acinetobacter baumannii; assay type: cell-based; details: strain AG225 Acinetobacter baumannii pittii
[6] = system: wild type bacterial ribosomes; test: in-vitro translation assay, bacterial ribosomes; assay type: biochemical
From the text: as §1

[7] = system: rabbit reticulocyte ribosomes; test: in-vitro translation assay, rabbit reticulocyte ribosomes; assay type: biochemical; details: mammalian cytosolic ribosomes (rabbit)
[8] = system: Enterobacter cloacae AG290; test: MIC by broth microdilution, Enterobacter cloacae; assay type: cell-based; details: strain AG290 Enterobacter cloacae
E coli wild type = test: MIC by broth microdilution, wild type E coli; assay type: cell-based
M. abscessus = test: MIC by broth microdilution, M. abscessus; assay type: cell-based
[9] = system: A1555G mutant mitochondrial ribosome (human chimeric); test: in-vitro translation assay, human chimeric ribosomes, A1555G mutant mitochondrial decoding site; assay type: biochemical; details: human mitochondrial decoding site with A1555G point mutation; read-out: IC50 Mitoch. A1555G
From the text: as §1

NC[C@@H]1O[C@H](O[C@H]2[C@@H](O)[C@H](O[C@@H]3[C@@H](O)[C@H](N)C[C@H](N)[C@H]3O[C@H]3O[C@H](CN)[C@@H](O)[C@H](O)[C@H]3N)O[C@@H]2CO)[C@H](N)[C@@H](O)[C@@H]1O [neomycin, Neomycin B, reference compound]
49 µM: IC50 [7]
<8 mm: Disk diffusion 25 nmol N. gonorrhoeae (N. gonorrhoeae)
0.25 µg/mL: MIC AG038 MRSA (MRSA; clinical isolate AG038) | MIC MRSA AG038 (MRSA; clinical isolate AG038, Table 1 (Example 3))
0.5 to 1 µg/mL: MIC MRSA AG044 (MRSA; clinical isolate AG044, Table 1 (Example 3)) | MIC50 MRSA AG44 (MRSA; strain AG44, Table 1 (Example 2)) | MIC E coli AG104 Wild type (E coli wild type; AG104 Wild type, Table 2 (Example 3)) | MIC E. coli WT (E coli wild type; Table 5 (Example 3)) | MIC AG212 E. coli (E coli wild type; strain AG212 E. coli (ATCC25922))
4 μg/ml: MIC pH415 AAC(6′)-II ([2]; E. coli strain pH415, AAC(6′)-II) | MIC50 E coli pH415 AAC(6′)-II ([2]; pH415 AAC(6′)-II, Table 2B (Example 2))
0.4 µM: IC50 [9]
1 µg/mL: MIC AG003 E. coli AAC(3)-II ([2]; clinical isolate AG003, AAC(3)-II) | MIC AG290 E. cloacae [8] | MIC50 E coli BM13 (AG06) wt (E coli wild type; BM13 (AG06) wt, Table 2A (Example 2)) | MIC WT (E coli wild type; Table 3 (Example 1)) | MIC WT (E coli wild type; Table 3 (Example 2)) | MIC E. coli WT (E coli wild type; Table 4 (Example 3)) | MIC AG001 E. coli WT (E coli wild type; clinical isolate AG001, WT) | MIC E coli AG003 (E coli wild type; clinical isolate AG003, Table 1 (Example 3)) | MIC AG055 E. coli WT (E coli wild type; clinical isolate AG055, WT) | MIC E coli AG055 (E coli wild type; clinical isolate AG055, Table 1 (Example 3)) | MIC AG160 E. coli WT (E coli wild type; clinical isolate AG160 WT, Table 2 (Example 4)) | MIC50 E coli AG03 (E coli wild type; strain AG03, Table 1 (Example 2))
64 μg/ml: MIC pH422 APH(3′)-II ([2]; E. coli strain pH422, APH(3′)-II) | MIC pH422 E. coli APH(3′)-II ([2]; engineered strain pH422 APH(3′)-II, Table 2 (Example 4)) | MIC50 E coli pH422 APH(3′)-II ([2]; pH422 APH(3′)-II, Table 2B (Example 2))
0.25 to 0.5 µg/mL: MIC50 E coli AG103 armA ([2]; AG103 armA, Table 2B (Example 2)) | MIC AG103 armA ([2]; E. coli strain AG103, armA) | MIC E coli AG006 Wild type (E coli wild type; AG006 Wild type, Table 2 (Example 3))
low: Target specificity bacterial vs. Mitochondrial ([4]; relative target specificity, bacterial vs. human mitochondrial)
32-64 μg/ml: MIC pH423 APH(3′)-VI ([2]; E. coli strain pH423, APH(3′)-VI) | MIC pH423 E. coli APH(3′)-VI ([2]; engineered strain pH423 APH(3′)-VI, Table 2 (Example 4)) | MIC50 E coli pH423 APH(3)-VI ([2]; pH423 APH(3)-VI, Table 2B (Example 2))
4 to 8 µg/mL: MIC50 E coli AG036 ANT(4′,4″) ([2]; Table 2B (Example 2)) | MIC ANT(4′) ([2]; ANT(4′), Table 3 (Example 2)) | MIC AG036 ANT(4′,4′′) ([2]; E. coli strain AG036, ANT(4′,4′′))
128 µg/mL: MIC AG039 MRSA AAC(6′)-I ANT(4′)-I (MRSA; clinical isolate AG039, AAC(6′)-I ANT(4′)-I) | MIC MRSA AG039 (MRSA; clinical isolate AG039, Table 1 (Example 3)) | MIC AG042 MRSA AAC(6′)-I ANT(4′)-I APH(2′) (MRSA; clinical isolate AG042, AAC(6′)-I ANT(4′)-I APH(2′)) | MIC MRSA AG042 (MRSA; clinical isolate AG042, Table 1 (Example 3)) | MIC50 MRSA AG39 (MRSA; strain AG39, Table 1 (Example 2)) | MIC50 MRSA AG42 (MRSA; strain AG42, Table 1 (Example 2))
>64 μg/mL: MIC E. coli AAC(2′) pH434 ([2]; AAC(2′) pH434, Table 4 (Example 3))
16 µg/mL: MIC M. abscessus ATCC 19977 WT (M. abscessus; ATCC 19977 WT, Table 5 (Example 3)) | MIC M. abscessus ATCC (M. abscessus; ATCC, Table 4 (Example 3)) | MIC M. abscessus Clin. Isol. (M. abscessus; Clin. Isol., Table 4 (Example 3)) | MIC M. abscessus clinical isolate (M. abscessus; clinical isolate, Table 5 (Example 3))
2 µg/mL: MIC50 E coli AG105 AAC(2′) ([2]; AG105 AAC(2′), Table 2A (Example 2)) | MIC50 E coli AG01 (E coli wild type; strain AG01, Table 1 (Example 2))
1 to 2 µg/mL: MIC50 MRSA AG38 (MRSA; strain AG38, Table 1 (Example 2)) | MIC AG225 A. baumannii [5] | MIC50 E coli AG55 (E coli wild type; strain AG55, Table 1 (Example 2))
>256 µg/mL: MIC50 E coli AG037 APH(3′,5″) ([2]; AG037 APH(3′,5″), Table 2A (Example 2))
35 µM: IC50 ([3]; cytosolic, Table 3 (Example 1), read-out: IC50 Cyt) | IC50 ([3]; cytosolic, Table 3 (Example 2), read-out: IC50 Cyt) | IC50 ([3]; cytosolic, Table 4 (Example 3), read-out: IC50 Cyt) | IC50 ([3]; ribosomes with a human cytosolic decoding site, read-out: IC50 Cytosolic)
4 µg/mL: MIC AAC(6′) ([2]; AAC(6′), Table 3 (Example 2)) | MIC50 E coli AG07 AAC(3) ([2]; AG07 AAC(3), Table 2A (Example 2)) | MIC E coli AG001 (E coli wild type; clinical isolate AG001, Table 1 (Example 3)) | MIC M. abscessus engineered Δeis2 (M. abscessus; engineered Δeis2, Table 5 (Example 3))
>64 µg/mL: MIC50 E coli AG037 APH(3′)-III ([2]; AG037 APH(3′)-III, Table 2B (Example 2)) | MIC APH(3′)-I ([2]; APH(3′)-I, Table 3 (Example 1)) | MIC APH(3′)-III ([2]; APH(3′)-III, Table 3 (Example 1)) | MIC AG037 APH(3′)-III ([2]; E. coli strain AG037, APH(3′)-III) | MIC AG163 E. coli APH(3′)-I ([2]; clinical isolate AG163 APH(3′)-I, Table 2 (Example 4)) | MIC AG037 E. coli APH(3′)-III ([2]; engineered strain AG037 APH(3′)-III, Table 2 (Example 4))
32 to 64 µg/mL: MIC APH(3)-VI ([2]; APH(3)-VI, Table 3 (Example 1)) | MIC APH(3′)-VI ([2]; APH(3′)-VI, Table 3 (Example 2)) | MIC50 P aeruginosa AG32 (P aeruginosa; strain AG32, Table 1 (Example 2))
4.3 µM: IC50 ([4]; mitochondrial, Table 3 (Example 1), read-out: IC50 Mit) | IC50 ([4]; mitochondrial, Table 3 (Example 2), read-out: IC50 Mit) | IC50 ([4]; mitochondrial, Table 4 (Example 3), read-out: IC50 Mit) | IC50 ([4]; ribosomes with a human mitochondrial decoding site, read-out: IC50 Mitoch.)
>128 µg/mL: MIC50 P aeruginosa AG33 (P aeruginosa; strain AG33, Table 1 (Example 2)) | MIC50 P aeruginosa AG86 (P aeruginosa; strain AG86, Table 1 (Example 2))
64 µg/mL: MIC APH(3′)-II ([2]; Table 3 (Example 1)) | MIC APH(3′)-II ([2]; Table 3 (Example 2)) | MIC AG166 E. coli APH(3′)-II ([2]; clinical isolate AG166 APH(3′)-II, Table 2 (Example 4))
32 µg/mL: MIC50 E coli AG036 ANT(4′,4″) ([2]; Table 2A (Example 2)) | MIC50 P aeruginosa AG31 (P aeruginosa; strain AG31, Table 1 (Example 2)) | MIC AG220 P. aerugin (P aeruginosa; strain AG220 Pseudomonas aeruginosa ATCC27853)
2 μg/ml: MIC pH414 AAC(6′)-I ([2]; E. coli strain pH414, AAC(6′)-I) | MIC50 E coli pH414 AAC(6′)-I ([2]; pH414 AAC(6′)-I, Table 2B (Example 2))
>64 μg/ml: MIC E. coli pH434 AAC(2′)-Ib ([2]; pH434 AAC(2′)-Ib, Table 5 (Example 3))
0.04 µM: IC50 ([6]; Mycobacterium smegmatis ribosomes, read-out: IC50 Bacterial) | IC50 ([6]; bacterial ribosome, Table 3 (Example 1), read-out: IC50 Bac) | IC50 ([6]; bacterial ribosome, Table 3 (Example 2), read-out: IC50 Bac) | IC50 ([6]; bacterial ribosome, Table 4 (Example 3), read-out: IC50 Bac)
0.25-0.5 μg/ml: MIC E. coli pGB2armA armA ([2]; pGB2armA armA, Table 5 (Example 3))
0.5 µg/mL: MIC AG215 K. pneumon [1] | MIC50 E coli AG103 armA ([2]; AG103 ArmA, Table 2A (Example 2)) | MIC M. smegmatis SZ380 WT (M. smegmatis SZ380; SZ380 WT, Table 5 (Example 3)) | MIC SZ380 M. smegmatis (M. smegmatis SZ380; strain SZ380 Mycobacterium smegmatis)
8 µg/mL: MIC E. coli AAC(2′) AG106 ([2]; AAC(2′) AG106, Table 4 (Example 3)) | MIC50 E coli AG09 AAC(6′) ([2]; AG09 AAC(6′), Table 2A (Example 2)) | MIC E. coli AG106 AAC(2′)-Ia ([2]; AG106 AAC(2′)-Ia, Table 5 (Example 3)) | MIC E coli AG106 AAC(2′) ([2]; AG106 AAC(2′), Table 2 (Example 3)) | MIC AG031 P. aer. APH(3′)-II (P aeruginosa; clinical isolate AG031, APH(3′)-II) | MIC AG032 P. aer. APH(3′)-II (P aeruginosa; clinical isolate AG032, APH(3′)-II)
1 μg/ml: MIC pH432 ANT(4′) ([2]; E. coli strain pH432, ANT(4′)) | MIC50 E coli pH432 ANT(4′) ([2]; pH432 ANT(4′), Table 2B (Example 2)) | MIC pH430 WT (E coli wild type; E. coli strain pH430, WT) | MIC pH430 E. coli WT (E coli wild type; engineered strain pH430 WT, Table 2 (Example 4)) | MIC50 E coli pH430 WT (E coli wild type; pH430 WT, Table 2B (Example 2))
>128 μg/ml: MIC pH421 APH(3)-I ([2]; E. coli strain pH421, APH(3)-I) | MIC pH421 E. coli APH(3′)-I ([2]; engineered strain pH421 APH(3′)-I, Table 2 (Example 4)) | MIC50 E coli pH421 APH(3′)-I ([2]; pH421 APH(3′)-I, Table 2B (Example 2))
